# Results taken from patent US8716287B2, “Pharmaceutical compounds” (Sentinel Oncology Limited, priority 2010, dated 2014).
# Structures can show the parent of a compound that is named as a salt. Where two headings read alike, the source gives them in different places.
# Biological target: Chk-1 kinase (Homo sapiens (Human), UniProt O14757)
# Experiment: Chk-1 kinase inhibiting activity (33P-ATP filter assay, CHKtide substrate)
# Type: biochemical
# Method: The compounds of the invention were tested for activity against Chk-1 kinase using the materials and protocols set out below.
# Base Reaction buffer: 20 mM Hepes (pH 7.5), 10 mM MgCl2, 1 mM EGTA, 0.02% Brij35, 0.02 mg/ml BSA, 0.1 mM Na3VO4, 2 mM DTT, 1% DMSO
# *Required cofactors are added individually to each kinase reaction
# (i) Prepare indicated substrate in freshly prepared Base Reaction Buffer
# (ii) Deliver any required cofactors to the substrate solution above
# (iii) Deliver indicated kinase into the substrate solution and gently mix
# (iv) Deliver compounds in DMSO into the kinase reaction mixture
# (v) Deliver ^33P-ATP (specific activity 0.01 μCi/μl final) into the reaction mixture to initiate the reaction.
# (vi) Incubate kinase reaction for 120 minutes at room temperature
# (vii) Reactions are spotted onto P81 ion exchange paper (Whatman #3698-915)
# (viii) Wash filters extensively in 0.1% phosphoric acid.
# (ix) Dry filters and measure counts in scintillation counter
# Recombinant full length construct, N-terminal GST tagged, purified from insect cells.
# No special measures were taken to activate this kinase.
# Final concentration in assay=0.5 nM
# Peptide sequence: [[…]]
# Final concentration in assay=20 μM
# No additional cofactors are added to the reaction mixture
# [1] = Chk-1 kinase, Table 3, read-out: IC50
# [2] = ranges given, read-out: IC50 values against Chk-1 kinase
# Chk-1 kinase, sequence (O14757 whole entry): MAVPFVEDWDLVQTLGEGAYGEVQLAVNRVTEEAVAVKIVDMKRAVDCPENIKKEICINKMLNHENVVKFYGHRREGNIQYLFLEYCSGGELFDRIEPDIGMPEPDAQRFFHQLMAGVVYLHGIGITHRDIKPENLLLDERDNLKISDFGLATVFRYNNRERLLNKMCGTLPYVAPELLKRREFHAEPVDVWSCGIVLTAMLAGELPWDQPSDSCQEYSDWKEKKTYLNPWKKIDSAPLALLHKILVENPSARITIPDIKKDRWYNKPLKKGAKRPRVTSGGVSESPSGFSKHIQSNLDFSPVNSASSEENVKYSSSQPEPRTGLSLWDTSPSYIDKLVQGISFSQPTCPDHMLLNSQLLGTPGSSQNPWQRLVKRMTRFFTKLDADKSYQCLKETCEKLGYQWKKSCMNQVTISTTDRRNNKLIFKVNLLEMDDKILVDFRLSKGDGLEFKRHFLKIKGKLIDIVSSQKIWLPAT
IC50 [1],IC50 [2],"IC50 (comparative tests, Example 70, read-out: Chk-1 IC50)",fold improvement in potency against Chk-1 (relative to Compound 338 of WO02/070494 (alkylene chain 1 to 2 carbon atoms)),SMILES
27 nM,–,27 nM,~3 fold,"COc1cc(CCNCc2ccccc2)ccc1NC(=O)Nc1cnc(C)cn1 [Example 32, 1-[4-(2-Benzylamino-ethyl)-2-methoxy-phenyl]-3-(5-methyl-pyrazin-2-yl)-urea hydrochloride]"
7.8 nM,< 10 nM,–,–,"COc1ccccc1CNCc1ccc(NC(=O)Nc2cnc(C#N)cn2)c(OC)c1 [Example 62, 1-(5-Cyano-pyrazin-2-yl)-3-{2-methoxy-4-[(2-methoxy-benzylamino)-methyl]-phenyl}-urea]"
10 nM,–,–,–,"Cc1cc(NC(=O)Nc2cnc(C#N)cn2)ccc1CCNCc1ccc(F)cc1 [Example 36, 1-(5-Cyano-pyrazin-2-yl)-3-{4-[2-(4-fluoro-benzylamino)-ethyl]-3-methyl-phenyl}-urea hydrochloride]"
3.3 nM,< 10 nM,–,–,"COc1cc(CCN[C@H](C)c2ccc(F)cc2)ccc1NC(=O)Nc1cnc(C#N)cn1 [Example 43, 1-(5-Cyano-pyrazin-2-yl)-3-(4-{2-[(R)-1-(4-fluoro-phenyl)-ethylamino]-ethyl}-2-methoxy-phenyl)-urea]"
9.8 nM,< 10 nM,–,–,"COc1cc(CNCc2ccc(F)cc2)c(Cl)cc1NC(=O)Nc1cnc(C#N)cn1 [Example 63, 1-{5-Chloro-4-[(4-fluoro-benzylamino)-methyl]-2-methoxy-phenyl}-3-(5-cyano-pyrazin-2-yl)-urea hydrochloride]"
0.03 nM,< 10 nM,–,–,"COc1cc(CCNCc2ccc(N3CCNCC3)cc2)c(Cl)cc1NC(=O)Nc1cnc(C#N)cn1 [Example 64, 1-{5-Chloro-2-methoxy-4-[2-(4-piperazin-1-yl-benzylamino)-ethyl]-phenyl}-3-(5-cyano-pyrazin-2-yl)-urea hydrochloride]"
1.2 nM,< 10 nM,–,–,"CCOc1cc(CCNCc2ccc(F)cc2)c(Cl)cc1NC(=O)Nc1cnc(C#N)cn1 [Example 45, 1-{5-Chloro-2-ethoxy-4-[2-(4-fluoro-benzylamino)-ethyl]-phenyl}-3-(5-cyano-pyrazin-2-yl)-urea hydrochloride]"
0.13 nM,< 10 nM,–,–,"COc1cc(CCN[C@@H](C)c2ccc(N3CCNCC3)cc2)c(Cl)cc1NC(=O)Nc1cnc(C#N)cn1 [Example 52, 1-(5-Chloro-2-methoxy-4-{2-[(S)-1-(4-piperazin-1-yl-phenyl)-ethylamino]-ethyl}-phenyl)-3-(5-cyano-pyrazin-2-yl)-urea hydrochloride]"
7.5 nM,< 10 nM,–,–,"COc1cccc(CNCc2ccc(NC(=O)Nc3cnc(C#N)cn3)c(OC)c2)c1 [Example 61, 1-(5-Cyano-pyrazin-2-yl)-3-{2-methoxy-4-[(3-methoxy-benzylamino)-methyl]-phenyl}-urea hydrochloride]"
13 nM,10 to 100 nM,–,–,"C[C@@H](NCCc1ccc(NC(=O)Nc2cnc(C#N)cn2)cc1Cl)c1ccc(F)cc1 [Example 24, 1-(3-Chloro-4-{2-[(R)-1-(4-fluoro-phenyl)-ethylamino]-ethyl}-phenyl)-3-(5-cyano-pyrazin-2-yl)-urea hydrochloride]"

SMILES,IC50 [1],IC50 [2],"IC50 (comparative tests, Example 70, read-out: Chk-1 IC50)",fold improvement in potency against Chk-1 (relative to Compound 338 of WO02/070494 (alkylene chain 1 to 2 carbon atoms))
"COc1cc(CNCc2ccccc2)c(Cl)cc1NC(=O)Nc1cnc(C#N)cn1 [Example 56, 1-[4-(Benzylamino-methyl)-5-chloro-2-methoxy-phenyl]-3-(5-cyano-pyrazin-2-yl)-urea hydrochloride]",2.8 nM,< 10 nM,–,–
"COc1cc(CNCc2cccc(F)c2)ccc1NC(=O)Nc1cnc(C#N)cn1 [Example 58, 1-(5-Cyano-pyrazin-2-yl)-3-{4-[(3-fluoro-benzylamino)-methyl]-2-methoxy-phenyl}-urea hydrochloride]",21 nM,–,–,–
"COc1cc(CNCc2ccccc2F)ccc1NC(=O)Nc1cnc(C#N)cn1 [Example 59, 1-(5-Cyano-pyrazin-2-yl)-3-{4-[(2-fluoro-benzylamino)-methyl]-2-methoxy-phenyl}-urea hydrochloride]",13 nM,–,–,–
